Laboratory results: ChEMBL document CHEMBL1201862, “PubChem BioAssay data set” (2004)
Calls of active or inactive are those of the source.

How the values were obtained:
[1] = molecular target: T1, E3 ubiquitin-protein ligase XIAP (Homo sapiens, UniProt P98170); assay: Counter Screen using XIAP-Bir3 for Chemical Antagonists of Bir1/2 domains of IAP-family anti-apoptotic proteins. [Related pubchem assays (depositor defined):AID1018, AID1449, AID1514, AID1638, AID1749, AID1750, AID488957, AID488963]
[2] = molecular target: T1, E3 ubiquitin-protein ligase XIAP; assay: small molecules displacing peptide from XIAP – biochemical, IAP family, fluorescence polarization (AID 1018); format: functional
[3] = Trypanosoma cruzi growth suppression in host cells – NIH3T3 host cells, beta-gal luminescence, confirmation (AID 2044); format: functional, cell-based;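 further: intracellular parasites grown in NIH/3T3 mouse fibroblasts as host cells; luminescent beta-galactosidase reporter signal from transgenic T. cruzi replicating inside host cells; inhibitors lower the luminescence signal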
[4] = molecular target: T2, Runt-related transcription factor 1/Core-binding factor subunit beta (Homo sapiens, UniProt Q01196+Q13951); assay: Runt domain/CBFb-SMMHC interaction disruptors – biochemical, TR-FRET (AID 1438); format: protein assay
[5] = molecular target: T2, Runt-related transcription factor 1/Core-binding factor subunit beta; assay: disruptors of Runt domain/CBFb-SMMHC interaction – biochemical, FRET, Cerulean-Runt, Venus-CBFb-SMMHC, uHTS, […] (AID 1434); format: protein assay
[6] = cells
[7] = NIH3T3 cell viability loss – ATP luminescence, mouse fibroblasts, counter-screen, dose response (AID 2010); format: functional, cell-based;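 further: cells exposed to compound for about 90 hours before reading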
[8] = molecular target: Signal transducer and activator of transcription 1-alpha/beta (Homo sapiens, UniProt P42224); assay: STAT3 blockade with qPCR and toxicity readouts – cell-based, STAT1 panel, cytotoxicity, late-stage follow-up, panel member STAT1 Inhibition (AID 2078)
[9] = molecular target: Signal transducer and activator of transcription 3 (Homo sapiens, UniProt P40763); assay: STAT3 blockade with qPCR and toxicity readouts – cell-based, STAT1 panel, cytotoxicity, late-stage follow-up, panel member STAT3 Inhibition (AID 2078)
[10] = molecular target: T3, Type-1 angiotensin II receptor (Homo sapiens, UniProt P30556); assay: agonist activity at AGTR1 – cell-based, uHTS hits, selectivity assay for APJ receptor agonist project, dose response (AID 488865); format: functional;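 further: beta-arrestin recruitment to AT1 measured by enzyme fragment complementation luminescence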
T3 sequence (P30556 whole entry): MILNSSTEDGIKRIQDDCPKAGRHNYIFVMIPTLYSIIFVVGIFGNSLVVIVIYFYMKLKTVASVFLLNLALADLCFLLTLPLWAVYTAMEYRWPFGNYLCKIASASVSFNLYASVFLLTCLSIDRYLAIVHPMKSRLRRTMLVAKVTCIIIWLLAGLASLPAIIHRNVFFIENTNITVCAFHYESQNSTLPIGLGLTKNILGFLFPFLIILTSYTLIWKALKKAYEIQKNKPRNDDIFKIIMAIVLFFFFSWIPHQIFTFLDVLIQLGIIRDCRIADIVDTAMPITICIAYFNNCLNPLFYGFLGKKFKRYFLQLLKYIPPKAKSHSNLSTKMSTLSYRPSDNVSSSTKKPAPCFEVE

[11] = molecular target: Mu-type opioid receptor (Homo sapiens, UniProt P35372); assay: SAR Analysis of Agonists of the MOR Receptor using an Image-Based Assay - Set 3. [Related pubchem assays (depositor defined):AID1777, AID1785, AID1786, AID1966, AID2133, AID2136, AID2284, AID2285, AID2352]; format: functional
[12] = molecular target: Delta-type opioid receptor (Homo sapiens, UniProt P41143); assay: SAR Analysis of Agonists of the DOR Receptor using an Image-Based Assay - Set 3. [Related pubchem assays (depositor defined):AID1777, AID1786]; format: functional
[13] = molecular target: T4, Cannabinoid receptor 2 (Homo sapiens, UniProt P34972); assay: SAR analysis of antagonists of the Cannabinoid Receptor 2 using an Image-Based Assay - Set 3. [Related pubchem assays (depositor defined):AID2013, AID2026]; format: functional
[14] = molecular target: T4, Cannabinoid receptor 2; assay: SAR analysis of agonists of the Cannabinoid Receptor 2 using an Image-Based Assay - Set 3. [Related pubchem assays (depositor defined):AID2013, AID2026]; format: functional
[15] = molecular target: G-protein coupled receptor 55 (Homo sapiens, UniProt Q9Y2T6); assay: SAR Analysis of Selective Antagonists of GPR55 using an Image-Based Assay - Set 4. [Related pubchem assays (depositor defined):AID2013, AID2026]; format: functional;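 further: antagonism of response to 5 µM lysophosphatidylinositol agonist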
[16] = molecular target: T5, G-protein coupled receptor 35 (Homo sapiens, UniProt Q9HC97); assay: SAR analysis of Agonists of the GPR35 Receptor using an Image-Based Assay - Set 4. [Related pubchem assays (depositor defined):AID2013, AID2026]; format: functional
[17] = molecular target: T6, Cannabinoid receptor 1 (Homo sapiens, UniProt P21554); assay: SAR analysis of antagonists of the Cannabinoid Receptor 1 using an Image-Based Assay - Set 4. [Related pubchem assays (depositor defined):AID2013, AID2026]; format: functional
[18] = molecular target: T5, G-protein coupled receptor 35; assay: SAR analysis of Antagonists of the GPR35 Receptor using an Image-Based Assay - Set 6. [Related pubchem assays (depositor defined):AID2013, AID2026]; format: functional
[19] = molecular target: T6, Cannabinoid receptor 1; assay: SAR analysis of agonists of the Cannabinoid Receptor 1 using an Image-Based Assay - Set 4. [Related pubchem assays (depositor defined):AID2013, AID2026]; format: functional
[20] = molecular target: SUMO-activating enzyme (Homo sapiens, UniProt Q9UBT2); assay: blockers of UBC9-mediated SUMO conjugation – biochemical, AlphaScreen, SUMOylation inhibitor project, confirmation (AID 2018); format: functional
[21] = viability of PTEN-deleted HCT116 cells – cell-based, HCT116 PTEN knockout, dose response (AID 1047); format: functional;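 further: HCT116 colon tumor cells with PTEN knocked out; cells exposed to compound for 60 hours before readout; potency for loss of cell viability measured by luminescence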
[22] = system: INS1; assay: INS-1E survival protection against cytokine death – cell-based, luminescence, retest, dose response (AID 449756); format: functional; settings: Rattus norvegicus;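 further: cell death triggered by IL-1 beta plus TNF-alpha plus IFN-gamma mixture; protective hits raise ATP signal compared with cytokine alone wells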
[23] = viability of HCT116 lacking mutant beta-catenin – cell-based, human colon tumor, dose response (AID 1045); format: functional;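 further: HCT116 colon tumor cells with beta catenin knocked out; cells exposed to compound for 60 hours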

T5 sequence (Q9HC97 whole entry): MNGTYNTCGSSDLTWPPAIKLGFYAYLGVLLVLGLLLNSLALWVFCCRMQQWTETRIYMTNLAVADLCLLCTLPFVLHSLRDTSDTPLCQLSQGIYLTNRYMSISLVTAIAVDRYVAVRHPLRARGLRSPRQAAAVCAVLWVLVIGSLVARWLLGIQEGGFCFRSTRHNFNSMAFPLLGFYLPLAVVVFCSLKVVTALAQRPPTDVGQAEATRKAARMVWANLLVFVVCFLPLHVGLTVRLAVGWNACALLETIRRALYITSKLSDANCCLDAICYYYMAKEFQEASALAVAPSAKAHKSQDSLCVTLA
T1 sequence (P98170 whole entry): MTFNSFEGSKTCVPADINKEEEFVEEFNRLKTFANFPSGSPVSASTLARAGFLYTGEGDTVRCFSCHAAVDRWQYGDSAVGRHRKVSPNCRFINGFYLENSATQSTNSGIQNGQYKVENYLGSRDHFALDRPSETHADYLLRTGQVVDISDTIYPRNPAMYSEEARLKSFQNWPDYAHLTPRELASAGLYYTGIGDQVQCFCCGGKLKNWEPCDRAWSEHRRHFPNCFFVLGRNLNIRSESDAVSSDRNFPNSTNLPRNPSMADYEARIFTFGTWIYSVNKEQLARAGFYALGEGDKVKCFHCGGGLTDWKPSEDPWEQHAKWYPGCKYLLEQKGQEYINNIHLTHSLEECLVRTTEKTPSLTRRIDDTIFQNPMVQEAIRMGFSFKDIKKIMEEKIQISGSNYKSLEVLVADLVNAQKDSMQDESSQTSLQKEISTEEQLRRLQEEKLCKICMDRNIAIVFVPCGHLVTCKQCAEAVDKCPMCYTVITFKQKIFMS
T4 sequence (P34972 whole entry): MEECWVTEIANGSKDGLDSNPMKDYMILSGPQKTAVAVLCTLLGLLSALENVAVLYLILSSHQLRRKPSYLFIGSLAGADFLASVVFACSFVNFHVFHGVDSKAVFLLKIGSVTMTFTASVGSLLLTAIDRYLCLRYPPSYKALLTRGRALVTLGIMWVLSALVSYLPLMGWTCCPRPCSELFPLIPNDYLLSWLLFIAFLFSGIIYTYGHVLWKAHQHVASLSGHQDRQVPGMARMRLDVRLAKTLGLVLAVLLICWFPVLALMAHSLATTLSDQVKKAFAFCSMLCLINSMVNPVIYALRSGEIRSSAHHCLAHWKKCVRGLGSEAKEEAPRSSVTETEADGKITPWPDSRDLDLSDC
T6 sequence (P21554 whole entry): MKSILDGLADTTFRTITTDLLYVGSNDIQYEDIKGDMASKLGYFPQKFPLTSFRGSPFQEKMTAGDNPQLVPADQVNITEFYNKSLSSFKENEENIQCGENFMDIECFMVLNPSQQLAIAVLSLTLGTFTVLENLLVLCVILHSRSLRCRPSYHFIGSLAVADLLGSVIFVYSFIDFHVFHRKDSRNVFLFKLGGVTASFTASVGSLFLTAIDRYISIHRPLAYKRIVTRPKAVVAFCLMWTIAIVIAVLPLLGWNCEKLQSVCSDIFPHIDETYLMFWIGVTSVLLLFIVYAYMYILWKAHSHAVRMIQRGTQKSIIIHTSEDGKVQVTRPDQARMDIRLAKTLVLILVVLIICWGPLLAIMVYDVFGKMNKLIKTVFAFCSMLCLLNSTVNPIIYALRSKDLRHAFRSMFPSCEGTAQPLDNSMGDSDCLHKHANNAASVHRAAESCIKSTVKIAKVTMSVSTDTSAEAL
T2 sequence (Q01196 whole entry, the tested form may be a part): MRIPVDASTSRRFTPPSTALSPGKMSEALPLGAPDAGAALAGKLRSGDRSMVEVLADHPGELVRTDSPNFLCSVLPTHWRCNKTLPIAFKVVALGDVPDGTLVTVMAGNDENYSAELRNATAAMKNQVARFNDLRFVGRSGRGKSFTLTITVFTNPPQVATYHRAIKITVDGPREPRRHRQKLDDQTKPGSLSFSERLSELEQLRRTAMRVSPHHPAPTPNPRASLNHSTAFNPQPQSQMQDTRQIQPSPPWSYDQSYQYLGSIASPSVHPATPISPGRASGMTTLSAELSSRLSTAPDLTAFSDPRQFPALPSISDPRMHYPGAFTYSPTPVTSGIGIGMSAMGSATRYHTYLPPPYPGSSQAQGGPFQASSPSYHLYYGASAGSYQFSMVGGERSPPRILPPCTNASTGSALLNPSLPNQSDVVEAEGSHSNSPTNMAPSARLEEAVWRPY
T2 sequence (Q13951 whole entry, the tested form may be a part): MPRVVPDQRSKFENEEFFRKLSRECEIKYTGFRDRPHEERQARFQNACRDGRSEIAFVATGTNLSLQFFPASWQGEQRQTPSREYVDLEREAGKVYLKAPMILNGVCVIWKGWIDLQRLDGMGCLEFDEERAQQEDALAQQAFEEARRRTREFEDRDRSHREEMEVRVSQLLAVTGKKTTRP
Sequence of Signal transducer and activator of transcription 3 (P40763 whole entry, the tested form may be a part): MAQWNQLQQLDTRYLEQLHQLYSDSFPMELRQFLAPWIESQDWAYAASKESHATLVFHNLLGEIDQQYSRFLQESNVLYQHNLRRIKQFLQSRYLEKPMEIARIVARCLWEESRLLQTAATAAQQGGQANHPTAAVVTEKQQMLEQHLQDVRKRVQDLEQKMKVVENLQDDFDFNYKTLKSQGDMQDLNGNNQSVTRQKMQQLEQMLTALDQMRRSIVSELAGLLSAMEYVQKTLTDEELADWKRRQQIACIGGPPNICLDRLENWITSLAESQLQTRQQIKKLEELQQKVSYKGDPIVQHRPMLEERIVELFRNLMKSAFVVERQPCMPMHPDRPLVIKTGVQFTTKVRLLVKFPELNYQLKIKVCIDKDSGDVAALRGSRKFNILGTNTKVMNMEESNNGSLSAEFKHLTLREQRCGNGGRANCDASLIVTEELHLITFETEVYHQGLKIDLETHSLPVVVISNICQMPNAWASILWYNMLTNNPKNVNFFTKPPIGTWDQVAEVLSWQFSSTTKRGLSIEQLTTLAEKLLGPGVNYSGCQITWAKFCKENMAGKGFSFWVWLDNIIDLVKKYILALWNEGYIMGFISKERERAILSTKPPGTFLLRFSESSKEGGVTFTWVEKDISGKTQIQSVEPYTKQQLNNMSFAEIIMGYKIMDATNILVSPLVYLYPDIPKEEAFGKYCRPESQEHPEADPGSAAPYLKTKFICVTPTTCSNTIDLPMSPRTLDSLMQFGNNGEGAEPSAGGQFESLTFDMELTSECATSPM
Sequence of Signal transducer and activator of transcription 1-alpha/beta (P42224 whole entry): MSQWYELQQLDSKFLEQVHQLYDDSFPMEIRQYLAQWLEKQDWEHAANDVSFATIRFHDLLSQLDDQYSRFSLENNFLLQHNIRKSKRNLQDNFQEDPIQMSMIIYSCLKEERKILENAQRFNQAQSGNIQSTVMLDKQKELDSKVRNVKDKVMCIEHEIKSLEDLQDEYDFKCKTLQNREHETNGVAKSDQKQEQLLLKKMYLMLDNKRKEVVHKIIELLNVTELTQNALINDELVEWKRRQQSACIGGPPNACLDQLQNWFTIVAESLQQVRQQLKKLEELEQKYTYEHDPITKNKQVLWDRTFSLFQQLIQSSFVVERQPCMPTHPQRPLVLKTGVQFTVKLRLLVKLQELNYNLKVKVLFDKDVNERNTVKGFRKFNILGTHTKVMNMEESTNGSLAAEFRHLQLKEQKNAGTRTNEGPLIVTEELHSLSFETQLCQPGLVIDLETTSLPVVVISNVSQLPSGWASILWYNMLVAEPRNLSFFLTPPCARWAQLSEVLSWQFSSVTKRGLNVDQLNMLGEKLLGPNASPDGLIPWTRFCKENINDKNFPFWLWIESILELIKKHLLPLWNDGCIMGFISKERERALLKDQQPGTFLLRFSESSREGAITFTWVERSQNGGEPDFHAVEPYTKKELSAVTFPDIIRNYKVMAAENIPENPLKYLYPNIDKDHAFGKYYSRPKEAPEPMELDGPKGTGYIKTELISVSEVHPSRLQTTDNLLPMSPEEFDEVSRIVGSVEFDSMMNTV
Sequence of G-protein coupled receptor 55 (Q9Y2T6 whole entry): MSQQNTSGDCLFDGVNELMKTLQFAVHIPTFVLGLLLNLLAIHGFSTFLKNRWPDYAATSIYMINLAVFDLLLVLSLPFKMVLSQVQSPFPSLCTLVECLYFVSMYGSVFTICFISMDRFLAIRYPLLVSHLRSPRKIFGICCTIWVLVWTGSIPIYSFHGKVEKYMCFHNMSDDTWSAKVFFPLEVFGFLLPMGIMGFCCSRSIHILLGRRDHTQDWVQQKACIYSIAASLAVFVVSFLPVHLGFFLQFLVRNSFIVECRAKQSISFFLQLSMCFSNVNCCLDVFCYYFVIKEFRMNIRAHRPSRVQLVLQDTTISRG
Sequence of Mu-type opioid receptor (P35372 whole entry): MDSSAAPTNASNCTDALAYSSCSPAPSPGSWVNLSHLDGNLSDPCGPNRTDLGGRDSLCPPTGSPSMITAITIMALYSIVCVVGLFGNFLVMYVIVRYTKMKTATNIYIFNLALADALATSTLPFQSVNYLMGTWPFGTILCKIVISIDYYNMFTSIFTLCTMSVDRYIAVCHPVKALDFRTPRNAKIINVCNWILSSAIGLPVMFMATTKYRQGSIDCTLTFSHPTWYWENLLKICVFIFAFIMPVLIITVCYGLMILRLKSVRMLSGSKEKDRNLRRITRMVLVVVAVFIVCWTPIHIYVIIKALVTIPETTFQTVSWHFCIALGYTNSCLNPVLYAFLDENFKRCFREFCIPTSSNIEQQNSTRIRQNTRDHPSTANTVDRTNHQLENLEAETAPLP
Sequence of Delta-type opioid receptor (P41143 whole entry): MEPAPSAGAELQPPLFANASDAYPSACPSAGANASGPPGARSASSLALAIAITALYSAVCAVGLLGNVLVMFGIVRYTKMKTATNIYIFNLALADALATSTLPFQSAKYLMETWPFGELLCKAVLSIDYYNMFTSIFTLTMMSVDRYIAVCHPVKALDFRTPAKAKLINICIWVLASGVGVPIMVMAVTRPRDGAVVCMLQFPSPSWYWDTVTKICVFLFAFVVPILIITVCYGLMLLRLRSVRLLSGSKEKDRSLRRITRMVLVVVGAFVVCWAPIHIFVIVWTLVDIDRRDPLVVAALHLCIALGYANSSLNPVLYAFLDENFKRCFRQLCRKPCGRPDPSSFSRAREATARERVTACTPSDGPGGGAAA

COc1ccc(-c2nc(Cn3c(SCc4ccccc4F)nc4ccncc43)c(C)o2)cc1
IC50 [1]: > 100 µM (inactive) | IC50 [2]: > 100 µM (not active)

CCN1CCS/C1=C\C=C\C1=[N+](CC)CCS1
EC50 [3]: < 0.1 µM (active) | IC50 [4]: > 100 µM (inactive) | IC50 [5]: 1.35 µM (active) | EC50 [6]: 0.028 µM (active) | EC50 [7]: > 60 µM (not active)

NNC(=O)c1cc2c(N3CCC(Cc4ccccc4)CC3)ncnc2s1
IC50 [8]: > 55.7 µM (inactive) | IC50 [9]: 13.7 µM (inactive)

O=c1oc2cc(OCc3ccc([N+](=O)[O-])cc3)ccc2c2c1CCCC2
EC50 [10]: > 100 µM (inactive)

Cc1cc(C)c(CSc2nnc(-c3ccccn3)n2Cc2ccco2)c(C)c1
EC50 [11]: > 32 µM (inactive) | EC50 [12]: > 64 µM (inactive)

N=c1c(C(=O)NCc2cccnc2)cc2c(=O)n3ccccc3nc2n1C1CCCC1
IC50 [13]: > 32 µM (inactive) | EC50 [14]: 7.94 µM (active) | IC50 [15]: 5.85 µM (active) | EC50 [16]: > 32 µM (inactive) | IC50 [17]: > 32 µM (inactive) | IC50 [18]: > 32 µM (inactive) | EC50 [19]: > 32 µM (inactive)

CCCCCCCC(=O)Nc1ccc(C(=O)N/N=C/c2cccc([N+](=O)[O-])c2)cc1
IC50 [20]: 34.7 µM (active) | EC50 [21]: 3.02 µM (active) | AC50 [22]: 4.85 µM (active) | EC50 [23]: 2.55 µM (active)
